Counter-ions that a name gives are not always drawn.
How the values were obtained:
Format in all cases: in vitro ADME
[1] = system: human hepatocytes; assay: Metabolite characterization in human hepatocytes; conditions: human hepatocyte 1 h incubates of ETN101; ND:<1.2E+05 peak area
Method: (§1) We mixed 60 μL aliquots of 40 μM ETN101 in incubation medium and an equal volume of human, mouse, rat, dog, or monkey hepatocyte suspension in 96-well plates and incubated for 0 or 1 h in a CO2 incubator at 37 °C. The reactions were quenched by adding 120 µL of ice-cold acetonitrile to each well, and the cell suspension was sonicated for 5 min at 4 °C. Subsequently, centrifugation was carried out at 15,000× g for 10 min at 4 °C. Next, the supernatants were evaporated to dryness using a vacuum concentrator, and residues were re-dissolved in 70 μL of 30% acetonitrile. Each sample (5 μL aliquots) was analyzed using LC–HRMS system.
(§2) For metabolite characterization, a Vanquish HPLC system (Thermo Fisher Scientific, San José, CA, USA) coupled with a Q-Exactive Orbitrap mass spectrometer (Thermo Fisher Scientific Inc., Waltham, MA, USA) was used at Core Research Support Center for Natural Products and Medical Materials at Yeungnam University. […] The eluent from the column was directly injected into the mass spectrometer using a heated electrospray ionization (HESI) source in positive ionization mode. […] The spray voltage was 3.0 kV and the capillary temperature was 320 °C. Full scan MS^1 with a data-dependent MS^2 acquisition mode was applied to obtain MS^1 scan data ranging from m/z 80 to 900, at a resolution of 70,000, whereas data-dependent MS^2 spectra were acquired for the five most abundant peaks per cycle at a resolution of 35,000. The parallel reaction monitoring (PRM) mode was used to obtain the MS^2 spectra of putative metabolites detected at low peak intensities in the data-dependent MS^2 acquisition mode. Data were collected and interpreted using Thermo Scientific Xcalibur™ Software (Thermo Fisher Scientific).

[2] = system: mouse hepatocytes; assay: Metabolite characterization in mouse hepatocytes; conditions: mouse hepatocyte 1 h incubates of ETN101; ND:<1.2E+05 peak area
Method: as §1, §2

[3] = system: rat hepatocytes; assay: Metabolite characterization in rat hepatocytes; conditions: rat hepatocyte 1 h incubates of ETN101; ND:<1.2E+05 peak area
Method: as §1, §2

[4] = system: monkey hepatocytes; assay: Metabolite characterization in monkey hepatocytes; conditions: monkey hepatocyte 1 h incubates of ETN101; ND:<1.2E+05 peak area
Method: as §1, §2

[5] = system: dog hepatocytes; assay: Metabolite characterization in dog hepatocytes; conditions: dog hepatocyte 1 h incubates of ETN101; ND:<1.2E+05 peak area
Method: as §1, §2

Row | Relative peak area (%) [1] [%] | Relative peak area (%) [2] [%] | Relative peak area (%) [3] [%] | Relative peak area (%) [4] [%] | Relative peak area (%) [5] [%] | SMILES
1 | 0.3 | 0.9 | 5.7 | 5.8 |  | CC(=O)Nc1ccc(-c2nc3ccccc3s2)cc1 [M2, N-Acetyl-CJM-126]
2 | 0.1 | < 0.1 | < 0.1 | < 0.1 | < 0.1 | Nc1ccc(-c2nc3ccccc3s2)cc1O [M5, 3′-OH-CJM-126]
3 | 0.1 | < 0.1 | 0.1 | < 0.1 | 0.5 | O=C(O)[C@H]1O[C@@H](Nc2ccc(-c3nc4ccccc4s3)cc2)[C@H](O)[C@@H](O)[C@@H]1O [M9, CJM-126 glucuronide]
4 |  |  | < 0.1 |  |  | O=S(=O)(O)Nc1ccc(-c2nc3ccccc3s2)cc1 [M10, CJM-126 sulfate]
